# Active and inactive are the calls of the source. The rule behind the calls is not given here.
# Biological target: Ribonuclease H1 (Homo sapiens) (UniProt O60930)
# Assay: human RNase H1 inhibitors, dose response, biochemical, FRET RNA/DNA duplex cleavage (AID 366);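 note: potency is for inhibitors that lower RNA cleavage and so lower fluorescence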
# Settings: fluorescence
# Sequence of Ribonuclease H1 (Homo sapiens) (O60930 whole entry, looked up): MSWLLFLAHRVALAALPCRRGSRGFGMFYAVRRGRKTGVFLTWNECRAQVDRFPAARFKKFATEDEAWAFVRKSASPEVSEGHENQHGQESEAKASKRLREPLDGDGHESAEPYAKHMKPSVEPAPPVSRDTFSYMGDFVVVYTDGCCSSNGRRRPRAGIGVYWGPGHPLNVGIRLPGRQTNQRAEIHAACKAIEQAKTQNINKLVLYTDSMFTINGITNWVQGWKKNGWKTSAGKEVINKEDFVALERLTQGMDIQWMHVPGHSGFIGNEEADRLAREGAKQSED
row,SMILES,IC50
1,C=C(C)[C@@H]1CCc2c(O)c(O)c(=O)cc(C)c2C1,3800 nM
2,CC(C)OC(=O)c1cc(O)c(O)c(O)c1,> 100000 nM (inactive)
3,O=c1[nH]c(=S)n(-c2ccccc2F)c(O)c1C=C1C=CC=N1,400 nM
4,CN(C)CS/C(N)=N/C(O)C(Cl)(Cl)Cl (configuration not stated),inactive
5,COc1ccc2oc(=O)c(-c3csc(Nc4ccc(Br)cc4)n3)cc2c1,900 nM
6,O=C1C=CC(=O)C(c2cc(Cl)ccc2Cl)=C1,3000 nM
7,Cc1ccc(C(=O)NC(=S)Nc2ccc(-c3nc4ccccc4s3)cc2)cc1[N+](=O)[O-],800 nM
8,C[C@]12Cc3cnc(-c4ccccc4)nc3C[C@@H]1CC[C@@H]1[C@@H]2CC[C@@]2(C)[C@H]1CC[C@]2(C)O,2800 nM
9,Nc1c(S(=O)(=O)O)cc(Nc2cccc(S(N)(=O)=O)c2)c2c1C(=O)c1ccccc1C2=O,2600 nM
10,Cc1sc(NC(=O)C2CC3CCC2C3)c(C(N)=O)c1C (configuration not stated),inactive
11,Cc1sc(NC(=O)C2CCCO2)c(C(N)=O)c1C (configuration not stated),inactive
12,O=c1[nH]c2[nH]c(=S)[nH]c(=S)c2[nH]1,9000 nM
13,Cc1cc(I)c2c(c1)C1C=CCC1C(C(=O)O)N2 (configuration not stated),inactive
14,COC(=O)c1cc2cc3cc4cc(CC(=O)O)c(C(=O)/C=C(\O)c5ccccc5O)c(OC)c4c(OC)c3c(O)c2c(=O)o1,1200 nM
15,O=C1C=C(NCCc2cc(Br)c(O)c(Br)c2)C(=O)c2ncccc21,6800 nM
16,COc1cc(/C=N\c2sc3c(c2C(=O)NCc2ccccc2)CCCC3)cc(Cl)c1O,2000 nM
17,O=C(O)CCc1c2ccc(=O)c(O)c-2oc2c(O)c(O)ccc12,70 nM
18,O=c1c(O)c(-c2ccc(O)c(O)c2)oc2cc(O)cc(O)c12,3000 nM
19,Nc1cc(S(N)(=O)=O)ccc1SSc1ccc(S(N)(=O)=O)cc1N,inactive
20,O=C1NC(=S)N(c2ccccc2F)C(=O)/C1=C/c1ccc(OCc2cccc(C(=O)O)c2)cc1,9000 nM
21,O=C1c2ccccc2C(=O)c2c(NC3CCCCC3)ccc(Nc3ccc(S(=O)(=O)O)cc3)c21,2200 nM

row,SMILES,IC50
1,Cc1sc(NC(=O)c2ccco2)c(C(N)=O)c1C,inactive
2,CC1=NN(c2ccc(S(N)(=O)=O)cc2)C(=O)/C1=C/c1ccc(-c2ccc(Cl)cc2Cl)o1,750 nM
3,Cc1c(Cl)ccc2c1NC(C(=O)O)C1CC=CC21 (configuration not stated),2000 nM
4,Cc1ccc(C)n1-c1ccc(O)c(C(=O)O)c1,900 nM
5,Cc1ccc(S(=O)(=O)/N=C2\C=C(Sc3ncn[nH]3)C(=O)c3ccccc32)cc1,9200 nM
6,Cc1cc(C(=O)O)ccc1-n1c(C)ccc1C,inactive
7,COc1cccc(-c2nc3cc(NC(=O)/C=C\c4ccccc4)ccc3o2)c1,800 nM
8,Oc1cc(CN2COc3ccccc32)c(O)cc1CNC1CCCCC1,inactive
9,O=[N+]([O-])c1ccc(S(=O)(=O)Cc2ccccc2)c2nonc12,5000 nM
10,O=C1C(Cl)=C/C(=N\S(=O)(=O)c2ccc(Cl)cc2)C(Cl)=C1Cl,4600 nM
11,O=C(O)C1CCCCC1c1c2ccc(=O)c(O)c-2oc2c(O)c(O)ccc12 (configuration not stated),100 nM
12,Oc1cc(O)c2cc(O)c(-c3ccc(O)c(O)c3)[o+]c2c1,100 nM
13,O=C(CSc1nc2ccccc2s1)c1sc2sc3ccccc3[n+]2c1[O-],300 nM
14,O=C1NC(=S)N(c2ccc(Cl)cc2)C(=O)/C1=C/c1ccc(Br)o1,600 nM
15,N#Cc1c(N)nc(SCC(=O)c2ccc(O)c(O)c2)c(C#N)c1-c1ccc(O)cc1,1300 nM
16,N#Cc1c(NC(=O)C(F)(F)F)sc2c3c(=O)c4ccccc4c(=O)c=3oc3ccccc3c12,inactive
17,Cc1ccccc1-n1c(O)c(C=C2C=CC=N2)c(=O)[nH]c1=S,5000 nM
18,Cc1cc(O)c2c(c1O)C(=O)C13C(=C2O)C(=O)C2C(O)C1C1C(O)C3C(=O)C3=C(O)c4c(O)cc(C)c(O)c4C(=O)C321 (configuration not stated),4000 nM
19,Cc1cc(C)c2c(=O)[nH]c(SCC(=O)c3ccc(O)c(O)c3)nc2n1,9000 nM
20,CCOc1ccc(N2C(=O)/C(=C/c3ccc(Br)o3)C(=O)NC2=S)cc1,700 nM
21,Cc1ccc(S(=O)(=O)N=C2C=CC(=O)C=C2)c(C)c1,3100 nM
